According to ChEMBL document CHEMBL3779769, “Indole-2-carboxylic acid derived mono and bis 1,4-disubstituted 1,2,3-triazoles: Synthesis, characterization and evaluation of anticancer, antibacterial, and DNA-cleavage activities” (Bioorg Med Chem Lett, 2016):
In brackets after ≈: the same amount, converted by molar mass. Activity calls are given as the source filed them. No cut-off for these calls is given here.

Assays:
Escherichia coli [1] = assay: Antibacterial activity against Escherichia coli MTCC 443 by broth dilution method; assay type: functional
Staphylococcus aureus = assay: Antibacterial activity against Staphylococcus aureus MTCC 96 by broth dilution method; assay type: functional
Proteus vulgaris = assay: Antibacterial activity against Proteus vulgaris MTCC 1771 by broth dilution method; assay type: functional
Bacillus subtilis = assay: Antibacterial activity against Bacillus subtilis MTCC 441 by broth dilution method; assay type: functional
MCF7 = assay: Cytotoxicity against human MCF7 cells assessed as cell viability after 48 hrs by MTT assay; assay type: functional, cell-based; settings: MCF7, 48 h
HeLa = assay: Cytotoxicity against human HeLa cells assessed as cell viability after 48 hrs by MTT assay; assay type: functional, cell-based
HEK293 = assay: Cytotoxicity against HEK293 cells assessed as cell viability after 48 hrs by MTT assay; assay type: cell-based; settings: Homo sapiens, HEK293, 48 h
Escherichia coli [2] = assay: Induction of DNA cleavage of Escherichia coli pUC18 at 100 ug/ml by agarose gel electrophoresis
[3] = Anticancer activity against mouse EAC cells xenografted in Swiss albino mouse assessed as tumor volume at 10 mg/kg, ip administered for 9 days measured after 14 days (reference value: 12.15 +/- 0.5 ml); assay type: functional, Ehrlich
[4] = Anticancer activity against mouse EAC cells xenografted in Swiss albino mouse assessed as packed cell volume at 10 mg/kg, ip administered for 9 days measured after 14 days […] (reference value: 2.62 +/- 0.5 ml); assay type: functional, Ehrlich
[5] = Anticancer activity against mouse EAC cells xenografted in Swiss albino mouse assessed as viable tumor cell count at 10 mg/kg, ip administered for 9 days measured after 14 days by trypan blue incorporation method (reference value: 7.30 +/- 0.6 10^7/ml); assay type: functional, Ehrlich
Mus musculus [6] = assay: Effect on hemoglobin level in Swiss albino mouse xenografted with mouse EAC cells at 5 mg/kg, ip administered for 9 days measured on day 14 (reference value: 5.67 +/- 0.8 g%); assay type: functional, Ehrlich
Mus musculus [7] = assay: Effect on RBC level in Swiss albino mouse xenografted with mouse EAC cells at 5 mg/kg, ip administered for 9 days measured on day 14 (reference value: 3.01+/- 0.75 10^6/mm3); assay type: functional, Ehrlich
Mus musculus [8] = assay: Effect on WBC level in Swiss albino mouse xenografted with mouse EAC cells at 5 mg/kg, ip administered for 9 days measured on day 14 (reference value: 22.07 +/- 0.11 10^3/mm3); assay type: functional, Ehrlich
Mus musculus [9] = assay: Effect on SGPT level in Swiss albino mouse xenografted with mouse EAC cells at 5 mg/kg, ip administered for 9 days measured on day 14 (reference value: 55.3 +/- 0.52 IU/L); assay type: functional, Ehrlich
Mus musculus [10] = assay: Effect on SGOT level in Swiss albino mouse xenografted with mouse EAC cells at 5 mg/kg, ip administered for 9 days measured on day 14 (reference value: 116.04 +/- 0.14 IU/L); assay type: functional, Ehrlich
Mus musculus [11] = assay: Effect on total protein level in Swiss albino mouse xenografted with mouse EAC cells at 5 mg/kg, ip administered for 9 days measured on day 14 (reference value: 7.84 +/- 0.36 […]); assay type: functional, Ehrlich
Mus musculus [12] = assay: Effect on hemoglobin level in Swiss albino mouse xenografted with mouse EAC cells at 10 mg/kg, ip administered for 9 days measured on day 14 (reference value: 5.67 +/- 0.8 g%); assay type: functional, Ehrlich
Mus musculus [13] = assay: Effect on RBC level in Swiss albino mouse xenografted with mouse EAC cells at 10 mg/kg, ip administered for 9 days measured on day 14 (reference value: 3.01+/- 0.75 10^6/mm3); assay type: functional, Ehrlich
Mus musculus [14] = assay: Effect on WBC level in Swiss albino mouse xenografted with mouse EAC cells at 10 mg/kg, ip administered for 9 days measured on day 14 (reference value: 22.07 +/- 0.11 10^3/mm3); assay type: functional, Ehrlich
Mus musculus [15] = assay: Effect on SGPT level in Swiss albino mouse xenografted with mouse EAC cells at 10 mg/kg, ip administered for 9 days measured on day 14 (reference value: 55.3 +/- 0.52 IU/L); assay type: functional, Ehrlich
Mus musculus [16] = assay: Effect on SGOT level in Swiss albino mouse xenografted with mouse EAC cells at 10 mg/kg, ip administered for 9 days measured on day 14 (reference value: 116.04 +/- 0.14 IU/L); assay type: functional, Ehrlich
Mus musculus [17] = assay: Effect on total protein level in Swiss albino mouse xenografted with mouse EAC cells at 10 mg/kg, ip administered for 9 days measured on day 14 (reference value: 7.84 +/- 0.36 […]); assay type: functional, Ehrlich
Mus musculus [18] = assay: Effect on body weight in Swiss albino mouse xenografted with mouse EAC cells at 5 mg/kg, ip administered for 9 days (reference value: 13.57 +/- 0.4 g); assay type: functional, Ehrlich
[19] = Anticancer activity against mouse EAC cells xenografted in Swiss albino mouse assessed as mean survival time at 5 mg/kg, ip administered for 9 days measured for 30 days (reference value: 12.8 +/- 0.7 days); assay type: functional, Ehrlich
[20] = Anticancer activity against mouse EAC cells xenografted in Swiss albino mouse assessed as percent increase in life span at 5 mg/kg, ip administered for 9 days measured for 30 days; assay type: functional; settings: Ehrlich
Mus musculus [21] = assay: Effect on body weight in Swiss albino mouse xenografted with mouse EAC cells at 10 mg/kg, ip administered for 9 days (reference value: 13.57 +/- 0.4 g); assay type: functional, Ehrlich
[22] = Anticancer activity against mouse EAC cells xenografted in Swiss albino mouse assessed as tumor volume at 5 mg/kg, ip administered for 9 days measured after 14 days (reference value: 12.15 +/- 0.5 ml); assay type: functional, Ehrlich
[23] = Anticancer activity against mouse EAC cells xenografted in Swiss albino mouse assessed as packed cell volume at 5 mg/kg, ip administered for 9 days measured after 14 days […] (reference value: 2.62 +/- 0.5 ml); assay type: functional, Ehrlich
[24] = Anticancer activity against mouse EAC cells xenografted in Swiss albino mouse assessed as viable tumor cell count at 5 mg/kg, ip administered for 9 days measured after 14 days by trypan blue incorporation method (reference value: 7.30 +/- 0.6 10^7/ml); assay type: functional, Ehrlich
[25] = Anticancer activity against mouse EAC cells xenografted in Swiss albino mouse assessed as mean survival time at 10 mg/kg, ip administered for 9 days measured for 30 days (reference value: 12.8 +/- 0.7 days); assay type: functional, Ehrlich
[26] = Anticancer activity against mouse EAC cells xenografted in Swiss albino mouse assessed as percent increase in life span at 10 mg/kg, ip administered for 9 days measured for 30 days; assay type: functional; settings: Ehrlich
Escherichia coli [27] = assay: Induction of DNA cleavage of Escherichia coli pUC18 at 50 ug/ml by agarose gel electrophoresis

## Cc1cccc(-n2cc(COC(=O)c3cc4ccccc4[nH]3)nn2)c1C
Escherichia coli [1]
  MIC: > 150 µg/mL
Staphylococcus aureus
  MIC: 4.69 µg/mL (≈ 13.5 µM)
Proteus vulgaris
  MIC: > 150 µg/mL
Bacillus subtilis
  MIC: > 150 µg/mL
MCF7
  IC50: 17.1 µM
HeLa
  IC50: 30.3 µM
HEK293
  IC50: 15.3 µM

## O=C(OCc1cn(-c2ccccc2Br)nn1)c1cc2ccccc2n1Cc1cn(-c2ccccc2Br)nn1
Escherichia coli [1]
  MIC: > 150 µg/mL
Staphylococcus aureus
  MIC: 2.34 µg/mL (≈ 3.7 µM)
Proteus vulgaris
  MIC: > 150 µg/mL
Bacillus subtilis
  MIC: 1.17 µg/mL (≈ 1.85 µM)
Escherichia coli [2]
  Activity: Active
MCF7
  IC50: 64.1 µM
HeLa
  IC50: 35.9 µM
HEK293
  IC50: 12.1 µM

## COc1ccc(-n2cc(COC(=O)c3cc4ccccc4n3Cc3cn(-c4ccc(OC)cc4)nn3)nn2)cc1
Escherichia coli [1]
  MIC: > 150 µg/mL
Staphylococcus aureus
  MIC: > 150 µg/mL
Proteus vulgaris
  MIC: 9.38 µg/mL (≈ 17.5 µM)
Bacillus subtilis
  MIC: > 150 µg/mL
MCF7
  IC50: 100 µM
HeLa
  IC50: 56.1 µM
HEK293
  IC50: 43.9 µM

## O=C(OCc1cn(-c2cccc(C(F)(F)F)c2)nn1)c1cc2ccccc2n1Cc1cn(-c2cccc(C(F)(F)F)c2)nn1
[3]
  Activity: 5.08 mL
[4]
  Activity: 0.86 mL
[5]
  Activity: 5.31 ×10⁷ /ml
Mus musculus [6]
  Activity: 7.32 g%
Mus musculus [7]
  Activity: 3.78 ×10⁶ /mm3
Mus musculus [8]
  Activity: 19.32 ×10³ /mm3
Mus musculus [9]
  Activity: 53.7 IU/L
Mus musculus [10]
  Activity: 109.03 IU/L
Mus musculus [11]
  Activity: 7.02 mg/dL
Mus musculus [12]
  Activity: 9.3 g%
Mus musculus [13]
  Activity: 4.12 ×10⁶ /mm3
Mus musculus [14]
  Activity: 16.32 ×10³ /mm3
Mus musculus [15]
  Activity: 45.18 IU/L
Mus musculus [16]
  Activity: 98.41 IU/L
Mus musculus [17]
  Activity: 5.96 mg/dL
Escherichia coli [1]
  MIC: 1.17 µg/mL (≈ 1.92 µM)
Staphylococcus aureus
  MIC: > 150 µg/mL
Proteus vulgaris
  MIC: > 150 µg/mL
Bacillus subtilis
  MIC: 2.34 µg/mL (≈ 3.83 µM)
MCF7
  IC50: 13.3 µM
HeLa
  IC50: 9.89 µM
HEK293
  IC50: 9.08 µM
Mus musculus [18]
  Activity: 11.83 g
[19]
  MST: 17.23 days
[20]
  ILS at 5 mg/kg: 14.2%
Mus musculus [21]
  Activity: 9.7 g
[22]
  Activity: 9.32 mL
[23]
  Activity: 1.63 mL
[24]
  Activity: 6.27 ×10⁷ /ml
[25]
  MST: 22.56 days
[26]
  ILS at 10 mg/kg: 34.1%

## O=C(OCc1cn(-c2cccc(C(F)(F)F)c2)nn1)c1cc2ccccc2[nH]1
Escherichia coli [1]
  MIC: 2.34 µg/mL (≈ 6.07 µM)
Staphylococcus aureus
  MIC: > 150 µg/mL
Proteus vulgaris
  MIC: > 150 µg/mL
Bacillus subtilis
  MIC: 4.69 µg/mL (≈ 12.1 µM)
Escherichia coli [2]
  Activity: Active
MCF7
  IC50: 16.5 µM
HeLa
  IC50: 11.7 µM
HEK293
  IC50: 32.7 µM

## Cc1cc(C)cc(-n2cc(COC(=O)c3cc4ccccc4n3Cc3cn(-c4cc(C)cc(C)c4)nn3)nn2)c1
Escherichia coli [1]
  MIC: > 150 µg/mL
Staphylococcus aureus
  MIC: > 150 µg/mL
Proteus vulgaris
  MIC: > 150 µg/mL
Bacillus subtilis
  MIC: > 150 µg/mL
MCF7
  IC50: 45.2 µM
HeLa
  IC50: 28.8 µM
HEK293
  IC50: 50.2 µM

## COc1ccc(-n2cc(COC(=O)c3cc4ccccc4[nH]3)nn2)cc1
Escherichia coli [1]
  MIC: > 150 µg/mL
Staphylococcus aureus
  MIC: > 150 µg/mL
Proteus vulgaris
  MIC: 4.69 µg/mL (≈ 13.5 µM)
Bacillus subtilis
  MIC: > 150 µg/mL
MCF7
  IC50: 16.2 µM
HeLa
  IC50: 16.1 µM
HEK293
  IC50: 42.5 µM

## CCCCc1ccc(-n2cc(COC(=O)c3cc4ccccc4n3Cc3cn(-c4ccc(CCCC)cc4)nn3)nn2)cc1
Escherichia coli [1]
  MIC: > 150 µg/mL
Staphylococcus aureus
  MIC: > 150 µg/mL
Proteus vulgaris
  MIC: > 150 µg/mL
Bacillus subtilis
  MIC: > 150 µg/mL
MCF7
  IC50: 66.9 µM
HeLa
  IC50: 42.8 µM
HEK293
  IC50: > 200 µM

## O=C(OCc1cn(-c2ccccc2Br)nn1)c1cc2ccccc2[nH]1
Escherichia coli [1]
  MIC: > 150 µg/mL
Staphylococcus aureus
  MIC: > 150 µg/mL
Proteus vulgaris
  MIC: > 150 µg/mL
Bacillus subtilis
  MIC: > 150 µg/mL
MCF7
  IC50: 38.8 µM
HeLa
  IC50: 17.3 µM
HEK293
  IC50: > 200 µM

## Cc1cccc(-n2cc(COC(=O)c3cc4ccccc4n3Cc3cn(-c4cccc(C)c4C)nn3)nn2)c1C
Escherichia coli [1]
  MIC: > 150 µg/mL
Staphylococcus aureus
  MIC: > 150 µg/mL
Proteus vulgaris
  MIC: > 150 µg/mL
Bacillus subtilis
  MIC: > 150 µg/mL
MCF7
  IC50: > 200 µM
HeLa
  IC50: > 200 µM
HEK293
  IC50: 14.1 µM

## CCCCc1ccc(-n2cc(COC(=O)c3cc4ccccc4[nH]3)nn2)cc1
Escherichia coli [1]
  MIC: > 150 µg/mL
Staphylococcus aureus
  MIC: > 150 µg/mL
Proteus vulgaris
  MIC: > 150 µg/mL
Bacillus subtilis
  MIC: > 150 µg/mL
Escherichia coli [27]
  Activity: Active
MCF7
  IC50: 28.8 µM
HeLa
  IC50: > 200 µM
HEK293
  IC50: 24.2 µM

## Cc1cc(C)cc(-n2cc(COC(=O)c3cc4ccccc4[nH]3)nn2)c1
Escherichia coli [1]
  MIC: > 150 µg/mL
Staphylococcus aureus
  MIC: > 150 µg/mL
Proteus vulgaris
  MIC: > 150 µg/mL
Bacillus subtilis
  MIC: > 150 µg/mL
Escherichia coli [2]
  Activity: Active
MCF7
  IC50: 30.5 µM
HeLa
  IC50: 30.2 µM
HEK293
  IC50: 12.5 µM

## CN[C@@H]1[C@H](O[C@H]2[C@H](O[C@H]3[C@H](O)[C@@H](O)[C@H](N=C(N)N)[C@@H](O)[C@@H]3N=C(N)N)O[C@@H](C)[C@]2(O)C=O)O[C@@H](CO)[C@H](O)[C@H]1O [STREPTOMYCIN]
Escherichia coli [1]
  MIC: 6.25 µg/mL (≈ 10.7 µM)
Staphylococcus aureus
  MIC: 6.25 µg/mL (≈ 10.7 µM)
Proteus vulgaris
  MIC: 3.12 µg/mL (≈ 5.37 µM)
Bacillus subtilis
  MIC: 6.25 µg/mL (≈ 10.7 µM)
